{"source": "patent US20030195161A1", "about": "“Composition comprising camptothecin or a camptothecin derivative and a topoisomerase II inhibitor for the treatment of cancer” (priority 2000, published 2003)", "key": {"[1]": {"system": "MA16/C, sc", "conditions": "mouse, in vivo", "procedure": "(§6) The effectiveness of irinotecan combination chemotherapy methods was tested in a dose response study in a murine tumor model. Three arms were evaluated for tolerance and efficacy. Tolerance was measured by mortality, body weight loss at nadir, host recovery time, and combination toxicity index. Efficacy end points for solid tumor models were tumor growth delay (T/C), log10 cell kill (LCK, defined above), tumor regressions (i.e., complete remission (CR),or partial remission (PR)).\n(§7) The LD10 for the single agent was obtained by plotting the toxicity of that agent and the dosage in mg/kg as a log probit graph. Subsequently, the CTI LD10 was obtained by plotting as a log probit graph the observed lethality and the corresponding CTI calculated as the sum of the fraction of the LD10 of each single agent."}, "[2]": {"system": "MA16/C, sc", "test": "Dose response combination study, MA16/C sc (Example 5)", "procedure": "as §6, §7"}, "[3]": {"system": "P388/CPT", "test": "Percent increase in life span, camptothecin-resistant i.p. P388/CPT leukemia (Example 2)", "assay_type": "in vivo, mice", "conditions": "for Comment (chemosensitivity of P388/CPT): minimal activity = ILS greater than 26%; for % ILS: i.p. P388/CPT, highest non-toxic dose", "experimental": "(§1) Cross-resistance between various agents was measured in murine leukemia cell lines. P388/CPT is a camptothecin-resistant leukemia that was established in vitro (Biochem. Pharmacol., 45: 339 (1993)) and maintained in vivo by i.p. passages in DBA2 female mice. The chemosensitivity of i.p. P388/CPT was evaluated with i.v. P388 sensitive reference drugs with different mechanisms of action. Antitumor efficacy was determined at the highest non-toxic dose as percent increase in life span (ILS), where:\n(§2) ILS=100×[(median day of death (MDD) of treated mice)−(MDD control mice)][…]\n(§3) A minimal level of activity equals an ILS of greater than 26%. P388/CPT was found resistant to camptothecin s.c. and CPT-11, but sensitive to both doxorubicin and etoposide. […] Table II tabulates the results from this study."}, "[4]": {"system": "P388", "assay_type": "in vivo, mice", "conditions": "highest non-toxic dose", "experimental": "as §1, §2, §3"}, "[5]": {"system": "P03, sc", "test": "Dose response combination study, P03 sc (Example 5)", "assay_type": "in vivo, murine", "experimental": "Three arms were evaluated for tolerance and efficacy."}, "[6]": {"system": "Pancreatic Ductal Adenocarcinoma P03", "procedure": "In the first arm, three doses of CPT were given orally on days six through nine, twice a day. In the second arm, three doses of doxorubicin were given intravenously on days six and nine. In the combination third arm, five dosage levels of CPT-11 were administered orally on days six through nine, twice a day, with administration of five dosage levels of doxorubicin intravenously on days six and nine. This third arm illustrated an example of semi-simultaneous administration. In all three arms, the two daily administrations of CPT-11 were given four hours apart."}, "[7]": {"system": "C51", "conditions": "C51 (BALB/c), days 5, 7, 9, 13, 15, twice daily; for LCK: at optimal total dose", "experimental": "(§4) This efficacy may be quantified, for example by the log10 cell kill, which is determined by the following formula: […]\n(§5) in which T−C represents the time taken for the cells to grow, which is the mean time in days for the tumors of the treated group (T) to reach a predetermined value (1 g for example) and the tumors of the control group (C) to reach the same value, and Td represents the time in days needed for the volume of the tumors in the control group to double. […] A product is considered to be active if the log10 cell kill is greater than or equal to 0.7. A product is considered to be very active if the log10 cell kill is greater than 2.8."}, "[8]": {"system": "C26", "conditions": "C26 (BALB/c); for LCK: at optimal total dose", "experimental": "as §4, §5"}, "[9]": {"system": "GOS", "conditions": "GOS (B6D2F1); for LCK: at optimal total dose", "experimental": "as §4, §5"}, "[10]": {"system": "MA16/C", "conditions": "MA16/C (C3H/HeN); for Optimal Total Dose: days 5-9; for LCK: days 5-9, at optimal total dose", "experimental": "as §4, §5"}, "[11]": {"system": "P03", "conditions": "P03 (B6D2F1), twice daily; for LCK: at optimal total dose", "experimental": "as §4, §5"}, "[12]": {"test": "Tolerance of oral and i.v. irinotecan in tumor bearing mice (Example 1)", "assay_type": "in vivo", "conditions": "oral and intravenous"}, "[13]": {"conditions": "Doxorubicin i.v. 3.8 mg/kg/adm, days 6, 9"}, "[14]": {"conditions": "Doxorubicin i.v. 6.2 mg/kg/adm, days 6, 9"}, "[15]": {"conditions": "Doxorubicin i.v. 10.0 mg/kg/adm, days 6, 9"}, "[16]": {"conditions": "CPT-11 p.o. 38.8 mg/kg/adm, days 6-9 (twice/day)"}, "[17]": {"conditions": "CPT-11 p.o. 62.5 mg/kg/adm, days 6-9 (twice/day)"}, "[18]": {"conditions": "CPT-11 p.o. 100.8 mg/kg/adm, days 6-9 (twice/day)"}}, "note": "Read-outs that look alike come from different tables or passages of the source. Marks after values point to notes of the source that are not given here.", "data": [{"smiles": "COc1cc([C@@H]2c3cc4c(cc3[C@@H](O[C@@H]3O[C@@H]5CO[C@@H](C)O[C@H]5[C@H](O)[C@H]3O)[C@H]3COC(=O)[C@H]23)OCO4)cc(OC)c1O", "note": "[etoposide]", "values": [{"measurement": "HNTD Dose", "setting": "[1]", "value": 90.0, "unit": "mg/kg"}, {"measurement": "LCK", "setting": "[2]; mouse, in vivo", "value": 2.2}, {"measurement": "Comment (chemosensitivity of P388/CPT)", "setting": "[3]; agent i.v.", "value": "sensitive"}, {"measurement": "% ILS", "setting": "[3]; agent i.v.", "value": 121, "unit": "%"}, {"measurement": "% ILS", "setting": "[4]; P388, agent i.v.", "value": 127, "unit": "%"}]}, {"smiles": "COc1cccc2c1C(=O)c1c(O)c3c(c(O)c1C2=O)C[C@@](O)(C(=O)CO)C[C@@H]3O[C@H]1C[C@H](N)[C@H](O)[C@H](C)O1", "note": "[doxorubicin]", "values": [{"measurement": "tumor free survivors", "setting": "[5]; doxorubicin i.v. single agent at HNTD 20.0 mg/kg, days 6, 9", "value": "4/5"}, {"measurement": "HNTD Dose", "setting": "[5]; doxorubicin i.v. single agent, days 6, 9", "value": 20.0, "unit": "mg/kg"}, {"measurement": "Comments", "setting": "[6]; [13]", "value": "Active"}, {"measurement": "Log10 cell kill", "setting": "[6]; [13]", "value": 1.0}, {"measurement": "T-C", "setting": "[6]; [13]", "value": 7.5, "unit": "days"}, {"measurement": "Time for median tumor to reach 1000 mg", "setting": "[6]; [13]", "value": 23.9, "unit": "days"}, {"measurement": "Comments", "setting": "[6]; [14]", "value": "Active"}, {"measurement": "Log10 cell kill", "setting": "[6]; [14]", "value": 1.2}, {"measurement": "T-C", "setting": "[6]; [14]", "value": 9.5, "unit": "days"}, {"measurement": "Time for median tumor to reach 1000 mg", "setting": "[6]; [14]", "value": 25.9, "unit": "days"}, {"measurement": "Comments", "setting": "[6]; [15]", "value": "HDT highly active"}, {"measurement": "tumor free survivors", "setting": "[6]; [15]", "value": "*There are no values presented because 4 out of 5 animals tested were tumor free survivors."}, {"measurement": "Comment (chemosensitivity of P388/CPT)", "setting": "[3]; agent i.v.", "value": "sensitive"}, {"measurement": "% ILS", "setting": "[3]; agent i.v.", "value": 180, "unit": "%"}, {"measurement": "% ILS", "setting": "[4]; P388, agent i.v.", "value": 122, "unit": "%"}]}, {"smiles": "CC[C@@]1(O)C(=O)OCc2c1cc1n(c2=O)Cc2cc3ccccc3nc2-1", "note": "[CPT, camptothecin]", "values": [{"measurement": "Comment (chemosensitivity of P388/CPT)", "setting": "[3]; agent s.c.", "value": "resistant"}, {"measurement": "% ILS", "setting": "[3]; agent s.c.", "value": 0, "unit": "%"}, {"measurement": "% ILS", "setting": "[4]; P388, agent s.c.", "value": 82, "unit": "%"}]}, {"smiles": "CCc1c2c(nc3ccc(OC(=O)N4CCC(N5CCCCC5)CC4)cc13)-c1cc3c(c(=O)n1C2)COC(=O)[C@]3(O)CC", "note": "[CPT-11, irinotecan]", "values": [{"measurement": "LCK", "setting": "[5]; CPT-11 p.o. single agent at HNTD 806 mg/kg, days 6-9 twice daily", "value": 1.3}, {"measurement": "HNTD Dose", "setting": "[5]; CPT-11 p.o. single agent, days 6-9 twice daily", "value": 806, "unit": "mg/kg"}, {"measurement": "LCK", "setting": "[2]; CPT-11 p.o. single agent at HNTD 198.5 mg/kg, MA16/C sc, days 3-7", "value": 2.0}, {"measurement": "HNTD Dose", "setting": "[2]; CPT-11 p.o. single agent, MA16/C sc, days 3-7", "value": 198.5, "unit": "mg/kg"}, {"measurement": "Optimal Total Dose", "setting": "[7]; i.v.", "value": 615, "unit": "mg/kg"}, {"measurement": "LCK", "setting": "[7]; i.v.", "value": 3.0}, {"measurement": "Optimal Total Dose", "setting": "[7]; oral", "value": 845, "unit": "mg/kg"}, {"measurement": "LCK", "setting": "[7]; oral", "value": 2.5}, {"measurement": "Optimal Total Dose", "setting": "[8]; i.v., twice daily", "value": 228, "unit": "mg/kg"}, {"measurement": "LCK", "setting": "[8]; i.v., twice daily", "value": 0.7}, {"measurement": "Optimal Total Dose", "setting": "[8]; oral, days 3-7 twice daily", "value": 558, "unit": "mg/kg"}, {"measurement": "LCK", "setting": "[8]; oral, days 3-7 twice daily", "value": 0.9}, {"measurement": "Optimal Total Dose", "setting": "[9]; i.v., days 3, 5, 7 twice daily", "value": 346.2, "unit": "mg/kg"}, {"measurement": "LCK", "setting": "[9]; i.v., days 3, 5, 7 twice daily", "value": 2.2}, {"measurement": "Optimal Total Dose", "setting": "[9]; oral, days 3-7, twice daily", "value": 900, "unit": "mg/kg"}, {"measurement": "LCK", "setting": "[9]; oral, days 3-7, twice daily", "value": 2.1}, {"measurement": "Optimal Total Dose", "setting": "[10]; i.v.", "value": 130.5, "unit": "mg/kg"}, {"measurement": "LCK", "setting": "[10]; i.v.", "value": 2.6}, {"measurement": "Optimal Total Dose", "setting": "[10]; oral", "value": 230.5, "unit": "mg/kg"}, {"measurement": "LCK", "setting": "[10]; oral", "value": 2.7}, {"measurement": "Optimal Total Dose", "setting": "[11]; i.v.", "value": 346.2, "unit": "mg/kg"}, {"measurement": "tumor free survivor on day 120", "setting": "[11]; i.v., 346.2 mg/kg total", "value": "†1/5 tumor free survivor on day 120."}, {"measurement": "LCK", "setting": "[11]; i.v.", "value": "3.2†"}, {"measurement": "Optimal Total Dose", "setting": "[11]; oral", "value": 900, "unit": "mg/kg"}, {"measurement": "tumor free survivor on day 120", "setting": "[11]; oral, 900 mg/kg total", "value": "†1/5 tumor free survivor on day 120."}, {"measurement": "LCK", "setting": "[11]; oral", "value": "3.4†"}, {"measurement": "Comments", "setting": "[6]; [16]", "value": "Inactive"}, {"measurement": "Log10 cell kill", "setting": "[6]; [16]", "value": 0.5}, {"measurement": "T-C", "setting": "[6]; [16]", "value": 4.0, "unit": "days"}, {"measurement": "Time for median tumor to reach 1000 mg", "setting": "[6]; [16]", "value": 20.4, "unit": "days"}, {"measurement": "Comments", "setting": "[6]; [17]", "value": "Active"}, {"measurement": "Log10 cell kill", "setting": "[6]; [17]", "value": 1.2}, {"measurement": "T-C", "setting": "[6]; [17]", "value": 9.3, "unit": "days"}, {"measurement": "Time for median tumor to reach 1000 mg", "setting": "[6]; [17]", "value": 25.7, "unit": "days"}, {"measurement": "Comments", "setting": "[6]; [18]", "value": "HDT active"}, {"measurement": "Log10 cell kill", "setting": "[6]; [18]", "value": 1.3}, {"measurement": "T-C", "setting": "[6]; [18]", "value": 9.8, "unit": "days"}, {"measurement": "Time for median tumor to reach 1000 mg", "setting": "[6]; [18]", "value": 26.2, "unit": "days"}, {"measurement": "Comment (chemosensitivity of P388/CPT)", "setting": "[3]; agent i.v.", "value": "resistant"}, {"measurement": "% ILS", "setting": "[3]; agent i.v.", "value": 0, "unit": "%"}, {"measurement": "% ILS", "setting": "[4]; P388, agent i.v.", "value": 91, "unit": "%"}, {"measurement": "nadir", "setting": "[12]; days post last administration", "value": 7, "unit": "days"}, {"measurement": "recovery", "setting": "[12]; days post nadir (i.e., 12 days post first administration)", "value": 5, "unit": "days"}, {"measurement": "body weight loss", "setting": "[12]; similar tolerance", "value": 8.5, "unit": "%"}]}]}
